Test results as given in patent US6809109B2, “2, 4-disubstituted-pyridine N-oxides useful as HIV reverse transcriptase inhibitors” (Bristol-Myers Squibb Company, priority 2002, dated 2004).
≈ marks a conversion by molar mass, not a printed value.

Test system: HIV-1 (RF)
Assay: HIV RNA assay, microplate based compound evaluation in HIV-1 infected MT-2 cells
Assay type: cell-based
Details: Human immunodeficiency virus 1, MT2, 72 h; HIV-1 (RF) infected MT-2 cells, 3 days of culture; value used to standardize the virus inoculum; read-out: IC90 (concentration of compound required to reduce the HIV RNA level by 90%)
Method: Plasmid pDAB 72 containing both gag and pol sequences of BH10 (bp 113-1816) cloned into PTZ 19R was prepared according to Erickson-Viitanen et al. AIDS Research and Human Retroviruses 1989, 5, 577. The plasmid was linearized with Bam HI prior to the generation of in vitro RNA transcripts using the Riboprobe Gemini system II kit (Promega) with T7 RNA polymerase. Synthesized RNA was purified by treatment with RNase free DNAse (Promega), phenol-chloroform extraction, and ethanol precipitation. RNA transcripts were dissolved in water, and stored at −70° C. The concentration of RNA was determined from the A260.
Biotinylated capture probes were purified by HPLC after synthesis on an Applied Biosystems (Foster City, Calif.) DNA synthesizer by addition of biotin to the 5′ terminal end of the oligonucleotide, using the biotin-phosphoramidite reagent of Cocuzza, Tet. Lett. 1989, 30, 6287. […]
MT-2 and MT-4 cells were maintained in RPMI 1640 supplemented with 5% fetal calf serum (FCS) for MT-2 cells or 10% FCS for MT-4 cells, 2 mM L-glutamine and 50 μg/mL gentamycin, all from Gibco. […] Infectious titers of HIV-1(RF) stocks were 1-3×10^7 PFU (plaque forming units)/mL as measured by plaque assay on MT-2 cells (see below). […]

- IC90: 0.2 mg/L (≈ 0.947 µM)
Structure (SMILES): Nc1ccn([C@H]2CC[C@@H](CO)O2)c(=O)n1 [ddC, dideoxycytidine]
